From patent publication US10660967B2, “Curcumin conjugates and methods of use thereof” (priority 2016, dated 2020) come the findings set out here.

As usually defined, the IC50 is the point on the concentration scale where inhibition reaches its midpoint.

Series [1] deals with Candida albicans (local isolate). The series is described as follows: Antimicrobial MIC, agar dilution. To be noted: Candida albicans, read-out: Minimum inhibitory concentration (MIC). (In general: Agar dilution tests growth on a series of plates holding different concentrations.)
Series [2] deals with Salmonella typhi ATCC19430. The series is described as follows: Antimicrobial MIC, agar dilution. Type of series: cell-based. The following applies: Salmonella enterica, read-out: Minimum inhibitory concentration (MIC).
The test system of series [3] is A-549 (lung) carcinoma cell line. The series is described as follows: Anti-tumor properties, MTT. Type of series: cell-based. To be noted: Homo sapiens, A549.
Series [4] deals with HCT116 (colon) carcinoma cell line. The series is described as follows: Anti-tumor properties, MTT. Type of series: cell-based. To be noted: Homo sapiens, HCT-116; for IC50: read-out: IC50 (μM) HCT116 (colon). The method in brief:
(§1)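 Cells seeded at 10×10^3 per well for 24 h, then exposed to compound in serum-free medium (final up to 100 μM, 0.5% DMSO vehicle) for 72 h in triplicate. Viability by MTT reduction (4 h, SDS solubilised), absorbance 595 nm/ref 620 nm; IC50 from survival curves.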

Series [5] has as its system HepG2 (hepatocellular) carcinoma cell line. The series is described as follows: Anti-tumor properties, MTT. The following applies: Homo sapiens; for IC50: HepG2, read-out: IC50 (μM) HepG2 (liver). Type of series: cell-based. The method in brief:
as §1

Series [6] relates to MCF7 (breast) carcinoma cell line. The series is described as follows: Anti-tumor properties, MTT. The format is cell-based. To be noted: Homo sapiens; for IC50: MCF7, read-out: IC50 (μM) MCF7 (breast). Summed up: as §1
Series [7] has as its system PC3 (prostate) carcinoma cell line. Kind of series: Anti-tumor properties, MTT. The format is cell-based. The following applies: Homo sapiens.
Series [8] concerns PHA-stimulated splenocytes. Kind of series: Proliferative response of PHA-stimulated splenocytes (MTT assay). The format is cell-based. The following applies: PHA 5 μg/ml, 72 hr; compounds at 5 μM (method says 10 μM); ratio of O.D. versus vehicle control. Summed up:
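Freshly prepared splenocytes (1×10^6 cells/well) were cultured for 72 h at 37° C with compound at 10 μM final, with or without PHA (5 μg/ml). Viability was read by MTT (4 h), with absorbance at 570 nm against 690 nm reference. Stimulation index is the OD ratio of treated versus vehicle cultures.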
For orientation: Tetrazolium dyes change colour on reduction, which living cells bring about.

The test system of series [9] is Streptococcus pyogenes ATCC19615. The series is described as follows: Antimicrobial MIC, agar dilution.
The subject of another series is gastric mucosa. The series is described as follows: Ulcerogenic liability (ulcer index). The format is in vivo, albino mice. To be noted: orally, three successive days, 10 mg/kg indomethacin mol equivalent; for Number of animals with ulcer: 6 animals per group; for Ulcer index: sum of the three values. The protocol: The ulcerogenic liability was investigated in albino mice using the standard method. […] The animals were fasted 18 h before drug administration. […] The control group animals were given saline solution only with few drops of Tween 80. […] The gastric mucosa was examined with a magnifying lens (10×) for the presence of lesions and erosions.
1. percentage incidence of ulcer divided by 10;
2. average number of ulcers per stomach; and
3. average severity of ulcers;

For series [10], the system named is Staphylococcus aureus ATCC25923. The series is described as follows: Antimicrobial MIC, agar dilution.
Series [11] concerns Pseudomonas aeruginosa ATCC27853. Kind of series: Antimicrobial MIC, agar dilution.
Series [12] has as its system lipopolysaccharide-stimulated peritoneal macrophages. Kind of series: Production of nitric oxide by lipopolysaccharide-stimulated peritoneal macrophages (Greiss reagent). Details: Potency (%): % inhibition of nitric oxide production relative to lipopolysaccharide-stimulated macrophages: concentration or dose not given beside the values. To be noted: LPS-stimulated peritoneal macrophages; for Nitric oxide (nitrite) concentration, μM (average ± SD): 24 h, nitrite by Greiss reagent. Type of series: cell-based. The method in brief:
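Macrophages in nitrite-free medium with 0.1% BSA were stimulated with LPS at 0.5–10 ng/ml, some wells also receiving epinephrine, norepinephrine or dopamine at […], for 24 h at 37° C. Nitrite in supernatants was measured with Greiss reagent, 15 min at room temperature, absorbance 532 nm.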

The next series deals with MCF-7 cells. The series is described as follows: Effect on doxorubicin induced cytotoxicity (MTT). Summed up:
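MCF-7 cells were exposed for 48 hr to 100 μM curcumin derivative alone or combined with 10 μM doxorubicin. Controls got medium, DMSO vehicle, or vehicle+doxorubicin. Percent viable cells was read by MTT assay.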

Where [13] appears, read: ATCC19615, 18 h, read-out: Minimum inhibitory concentration (MIC).
[14] abbreviates: ATCC19615, read-out: Minimum inhibitory concentration (MIC).
Where [15] appears, read: ATCC25923, 18 h, read-out: Minimum inhibitory concentration (MIC).
The mark [16] stands for this setting: ATCC25923, read-out: Minimum inhibitory concentration (MIC).
[17] abbreviates: ATCC27853, 18 h, read-out: Minimum inhibitory concentration (MIC).
[18] abbreviates: ATCC27853, read-out: Minimum inhibitory concentration (MIC).

Molecules are shown by their SMILES. Read-outs that look alike come from different tables or passages of the source.

As to `COc1cc(/C=C/C(=O)CC(=O)/C=C/c2ccc(OC(=O)[C@@H](CCSC)NC(=O)OC(C)(C)C)c(OC)c2)ccc1OC(=O)[C@@H](CCSC)NC(=O)OC(C)(C)C` [Boc-D-Met-Cur, ((1E,6E)-3,5-dioxohepta-1,6-diene-1,7-diyl)bis(2-methoxy-4,1-phenylene) (2R,2′R)-bis(2-((tert-butoxycarbonyl)amino)-4-(methylthio)butanoate)], the MIC was found to be 0.5 µg/mL in series [1] (18 h); 0.602 µM in [1]; 1 µg/mL in series [2] (18 h); 1.2 µM in [2]; 0.125 µg/mL in [9] (setting [13]); 0.15 µM in series [9] (setting [14]). Moreover, the MIC is 0.25 µg/mL in series [10] (setting [15]), 0.301 µM in series [10] (setting [16]), 0.25 µg/mL in [11] (setting [17]) and 0.301 µM in series [11] (setting [18]). The 50% inhibitory concentration (IC50) in series [3] is greater than 100 µM; in series [4] it was greater than 100 µM; in series [5] it was greater than 100 µM; in [6], 22.3 µM; in series [7], greater than 100 µM. The “Stimulation Index (average ± SD)” value in series [8] stood at 2.53 ± 0.08. In the series on gastric mucosa, the “% Incidence of ulcer divided by 10” value stood at 0. For the same compound, the “Average of ulcer number” value in the series on gastric mucosa came out at 0. In the series on gastric mucosa, the “Average severity of ulcer” value turned out to be 0. For the same compound, in the series with gastric mucosa, the “Number of animals with ulcer” value was 0/6. Besides, in the series on gastric mucosa, the Ulcer index is 0.

As to `COc1cc(/C=C/C(=O)CC(=O)/C=C/c2ccc(OC(=O)[C@@H](N)CCC(N)=O)c(OC)c2)ccc1OC(=O)[C@@H](N)CCC(N)=O.Cl.Cl` [HCl-L-Gln-Cur, (2S,2′S)-1,1′-((((1E,6E)-3,5-dioxohepta-1,6-diene-1,7-diyl)bis(2-methoxy-4,1-phenylene))bis(oxy))bis(5-amino-1,5-dioxopentan-2-aminium) chloride], the MIC in series [1] (18 h) is 0.125 µg/mL; in series [1] it was 0.179 µM; in series [2] (18 h), 0.125 µg/mL; in series [2], 0.179 µM; in series [9] (setting [13]) it was 0.5 µg/mL; in series [9] (setting [14]) it was 0.717 µM. The MIC in [10] (setting [15]) came to 0.25 µg/mL; in series [10] (setting [16]), 0.358 µM; in series [11] (setting [17]), 0.5 µg/mL; in series [11] (setting [18]) it was 0.717 µM. In addition, the IC50 came to 21.1 µM in [3]; 41 µM in [4]; 39.1 µM in [5]; 9.15 µM in series [6]; 34.4 µM in series [7]. Also, in [8], the “Stimulation Index (average ± SD)” value is 2.22 ± 0.20. Also, in [12], the “Potency (%): % inhibition of nitric oxide production relative to lipopolysaccharide-stimulated macrophages” value stood at 20.35%. For the same compound, the “Nitric oxide (nitrite) concentration, μM (average ± SD)” value in [12] worked out at 21.75 ± 1.31 µM.

For the compound `COc1cc(/C=C/C(=O)CC(=O)/C=C/c2ccc(OC(=O)[C@H](CCC(N)=O)NC(=O)OCc3ccccc3)c(OC)c2)ccc1OC(=O)[C@H](CCC(N)=O)NC(=O)OCc1ccccc1` [Z-L-Gln-Cur, ((1E,6E)-3,5-dioxohepta-1,6-diene-1,7-diyl)bis(2-methoxy-4,1-phenylene) (2S,2′S)-bis(5-amino-2-(((benzyloxy)carbonyl)amino)-5-oxopentanoate)], the MIC in series [1] (18 h) worked out at 0.5 µg/mL; in series [1], 0.56 µM; in [2] (18 h), 0.5 µg/mL; in series [2], 0.56 µM; in series [9] (setting [13]), 0.125 µg/mL; in series [9] (setting [14]) it was 0.14 µM. Also, the MIC was determined as 0.5 µg/mL in series [10] (setting [15]), 0.56 µM in series [10] (setting [16]), 1 µg/mL in series [11] (setting [17]) and 1.12 µM in [11] (setting [18]). For the same compound, the IC50 was 46.1 µM in [3]; greater than 100 µM in series [4]; greater than 100 µM in series [5]; 10.2 µM in [6]; 90.7 µM in series [7]. For the same compound, in series [8], the “Stimulation Index (average ± SD)” value was 2.37 ± 0.16.

As to `COc1cc(/C=C/C(=O)CC(=O)/C=C/c2ccc(OC(=O)[C@H](Cc3ccccc3)NC(=O)OC(C)(C)C)c(OC)c2)ccc1OC(=O)[C@H](Cc1ccccc1)NC(=O)OC(C)(C)C` [Boc-L-Phe-Cur, ((1E,6E)-3,5-dioxohepta-1,6-diene-1,7-diyl)bis(2-methoxy-4,1-phenylene) (2S,2′S)-bis(2-((tert-butoxycarbonyl)amino)-3-phenylpropanoate)], the MIC amounted to 1 µg/mL in series [1] (18 h); 1.16 µM in [1]; 0.25 µg/mL in series [2] (18 h); 0.29 µM in series [2]; 0.125 µg/mL in [9] (setting [13]); 0.145 µM in series [9] (setting [14]). Besides, the MIC in series [10] (setting [15]) was determined as 0.25 µg/mL; in series [10] (setting [16]), 0.29 µM; in [11] (setting [17]), 1 µg/mL; in [11] (setting [18]), 1.16 µM. Besides, the IC50 in series [3], in [4], in series [5], in [6] and in [7] was greater than 100 µM each time. In series [8], the “Stimulation Index (average ± SD)” value was determined as 2.56 ± 0.14.

In the case of `COc1cc(/C=C/C(=O)CC(=O)/C=C/c2ccc(OC(=O)[C@H](CCSC)NC(=O)OCC3c4ccccc4-c4ccccc43)c(OC)c2)ccc1OC(=O)[C@H](CCSC)NC(=O)OCC1c2ccccc2-c2ccccc21` [Fmoc-Met-Cur, ((1E,6E)-3,5-dioxohepta-1,6-diene-1,7-diyl)bis(2-methoxy-4,1-phenylene) (2S,2′S)-bis(2-((((9H-fluoren-9-yl)methoxy)carbonyl)amino)-4-(methylthio)butanoate)], the MIC was determined as 0.5 µg/mL in series [1] (18 h); 0.465 µM in series [1]; 2 µg/mL in [2] (18 h); 1.86 µM in series [2]; 0.125 µg/mL in series [9] (setting [13]); 0.116 µM in series [9] (setting [14]). For the same compound, the MIC in series [10] (setting [15]) was determined as 0.25 µg/mL; in [10] (setting [16]), 0.233 µM; in series [11] (setting [17]), 2 µg/mL; in series [11] (setting [18]), 1.86 µM. The activity at 100 µM was determined as 96.4 ± 1.4% in series [4] (HCT116, 100 μM, 72 h, read-out: Percentage growth of tumor cell lines treated with the tested compounds (±SD)); 92.4 ± 5.1% in [5] (HepG2, 100 μM, 72 h, read-out: Percentage growth of tumor cell lines treated with the tested compounds (±SD)); 88.9 ± 5% in [6] (MCF7, 100 μM, 72 h, read-out: Percentage growth of tumor cell lines treated with the tested compounds (±SD)). In addition, the “Stimulation Index (average ± SD)” value in series [8] amounted to 1.07 ± 0.16. Moreover, the “Potency (%): % inhibition of nitric oxide production relative to lipopolysaccharide-stimulated macrophages” value in [12] is given as 47.91%. The “Nitric oxide (nitrite) concentration, μM (average ± SD)” value in series [12] worked out at 14.23 ± 1.05 µM. In addition, the “% Incidence of ulcer divided by 10” value in the series with gastric mucosa was found to be 0. Moreover, the “Average of ulcer number” value with gastric mucosa amounted to 0. Also, the “Average severity of ulcer” value in the series on gastric mucosa came out at 0. In the series on gastric mucosa, the “Number of animals with ulcer” value is on record as 0/6. For the same compound, in the series with gastric mucosa, the Ulcer index came to 0. Further, the “Percentage of viable cells MCF-7 (average ± SD)” value in the series with MCF-7 cells (10 μM DOX in combination with 100 μM curcumin derivative, 48 hr) amounted to 38.75 ± 1.65. The viability at 100 µM with MCF-7 cells (Homo sapiens, MCF7, 48 h, read-out: Percentage of viable cells MCF-7 (average ± SD)) turned out to be 99.3 ± 3.16%.
